Key:
[1] = test system: solid tumors with NTRK1, NTRK2, NTRK3, ROS1 or ALK genetic alterations which are fusions; experiment: Phase I clinical trials of entrectinib in cancer patients: tumor response (RECIST); format: in vivo, human
Excerpt: (§1) A total of 18 patients across the Phase I studies met our expected Phase 2 eligibility criteria, which include the presence of NTRK1, NTRK2, NTRK3, ROS1 or ALK genetic alterations which are fusions, as opposed to other types of molecular alterations; the patient not having been previously treated with an ALK inhibitor or a ROS1 inhibitor and treatment at or above the recommended Phase II dose.

[2] = Phase I clinical trials of entrectinib in cancer patients: pharmacokinetic measurements
Excerpt: as §1

[3] = Phase I clinical trials of entrectinib in cancer patients: treatment-related adverse events, recommended Phase II dose; details: across the Phase I studies
[4] = Thermodynamic stability of crystalline forms; format: physicochemical; details: at temperature of about 40° C. or higher, vis-à-vis the three known crystalline forms (forms 1, 2, 3)

Row | Structure (SMILES) | response rate, defined as complete and partial responses by RECIST criteria ([1]; 18 patients who met the expected Phase 2 eligibility criteria across both Phase I studies, assessed by the clinical sites) [%] | additional patients remaining on study with stable disease ([1]; among the 18 patients meeting expected Phase 2 eligibility criteria) [patients] | durable responses (duration on study treatment) ([1]; nine responders remaining on study treatment) | responses in patients with NTRK1, NTRK2 or NTRK3 gene rearrangements ([1]; out of 4 patients, NSCLC, colorectal cancer, salivary gland cancer) [responses] | responses in patients with ALK gene rearrangements ([1]; out of 6 patients, two NSCLC and two other solid tumors) [responses] | responses in patients with ROS1 gene rearrangements ([1]; out of 8 patients, all NSCLC, including one complete response) [responses] | responses out of treated patients ([1]; out of 18 treated patients meeting expected Phase 2 eligibility criteria) [responses] | longest time on treatment of responders ([1]; responding patients with ROS1 gene rearrangements, NSCLC) [months] | pharmacokinetic measurements (exposure vs dose) ([2]; across the daily dosing regimens evaluated) | half-life ([2]; daily dosing regimens, patients) | Grade 3 treatment-related adverse event: cognitive impairment ([3]; 92 patients dosed) [patients] | Grade 3 treatment-related adverse event: diarrhea ([3]; 92 patients dosed) [patient] | Grade 3 treatment-related adverse event: fatigue ([3]; 92 patients dosed) [patients] | incidence of the most frequent treatment-related adverse events ([3]; fatigue, dysgeusia, paresthesia, nausea, myalgia) [%] | thermodynamic stability [4]
1 | CN1CCN(c2ccc(C(=O)Nc3n[nH]c4ccc(Cc5cc(F)cc(F)c5)cc34)c(NC3CCOCC3)c2)CC1 [Entrectinib, N-[5-(3,5-Difluoro-benzyl)-1H-indazol-3-yl]-4-(4-methyl-piperazin-1-yl)-2-(tetrahydro-pyran-4-ylamino)-benzamide] | 72 | 3 | up to 21 treatment cycles | 3 | 4 | 6 | 13 | 21 | dose-proportional increases | compatible with once-daily dosing | 2 | 1 | 4 | > 10 | –
2 | CN1CCN(c2ccc(C(=O)Nc3n[nH]c4ccc(Cc5cc(F)cc(F)c5)cc34)c(NC3CCOCC3)c2)CC1 [Form 4, N-[5-(3,5-difluoro-benzyl)-1H-indazol-3-yl]-4-(4-methyl-piperazin-1-yl)-2-(tetrahydro-pyran-4-ylamino)-benzamide] | – | – | – | – | – | – | – | – | – | – | – | – | – | – | greater thermodynamic stability

From US11091469B2, “Crystalline form of N-[5-(3,5-difluoro-benzyl)-1H-indazol-3-yl]-4-(4-methyl-piperazin-1-yl)-2-(tetrahydro-pyran-4-ylamino)-benzamide” (NERVIANO MEDICAL SCIENCES S.R.L., priority 2016, dated 2021)
